Reference: US11603373B2, “TDO2 and IDO1 inhibitors” (Genentech, Inc., priority 2017, dated 2023)

Columns and labels:
[1] = molecular target: T1, TDO2 (SW48 cells, high TDO expressing cells) (Homo sapiens, UniProt P48775); assay: NFK GreenScreen cell assay, inhibition of TDO in SW48 cells; assay type: cell-based; conditions: read-out: TDO2 Cell Fluor EC50
T1 construct: SW48 cells (high TDO expressing cells); endogenous in cells; host or cells: SW48 cells
Text: (§1) Cells are counted on a Vi-Cell (Beckman Coulter). […] The final DMSO concentration is 0.5%.

[2] = molecular target: T2, IDO1 (A172+IFNg cells, high IDO expressing cells) (Homo sapiens, UniProt P14902); assay: NFK GreenScreen cell assay, inhibition of IDO in A172+IFNg cells; assay type: cell-based; conditions: read-out: IDO cell Fluor EC50
T2 construct: A172+IFNg cells (high IDO expressing cells); endogenous in cells; host or cells: A172 cells induced with 100 ng/ml IFNγ
T2 sequence (P14902 whole entry): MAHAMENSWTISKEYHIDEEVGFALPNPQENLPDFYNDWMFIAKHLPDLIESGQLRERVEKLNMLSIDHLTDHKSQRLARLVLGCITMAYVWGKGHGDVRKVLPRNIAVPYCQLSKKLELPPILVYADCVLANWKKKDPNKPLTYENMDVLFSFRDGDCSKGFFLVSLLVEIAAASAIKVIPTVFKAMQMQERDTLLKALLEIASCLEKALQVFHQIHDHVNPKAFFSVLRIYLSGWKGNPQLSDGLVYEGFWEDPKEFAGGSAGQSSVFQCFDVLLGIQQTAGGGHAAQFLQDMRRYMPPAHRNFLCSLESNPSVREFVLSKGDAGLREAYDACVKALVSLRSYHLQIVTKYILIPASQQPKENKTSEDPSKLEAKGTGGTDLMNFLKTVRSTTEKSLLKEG
Text: as §1

T1 sequence (P48775 whole entry): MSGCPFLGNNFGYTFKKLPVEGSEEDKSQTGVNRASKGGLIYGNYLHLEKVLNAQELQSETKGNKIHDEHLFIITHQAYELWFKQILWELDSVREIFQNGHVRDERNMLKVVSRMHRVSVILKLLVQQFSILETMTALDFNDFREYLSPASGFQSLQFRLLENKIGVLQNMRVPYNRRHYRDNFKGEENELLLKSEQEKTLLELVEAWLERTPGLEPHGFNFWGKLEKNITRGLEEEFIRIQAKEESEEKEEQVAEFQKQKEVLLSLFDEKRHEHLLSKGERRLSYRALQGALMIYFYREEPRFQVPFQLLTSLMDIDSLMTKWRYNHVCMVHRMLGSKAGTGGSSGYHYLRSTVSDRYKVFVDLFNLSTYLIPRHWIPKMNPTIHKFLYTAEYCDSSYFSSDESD

EC50 [1]	EC50 [2]	SMILES
160 nM	290 nM	O=S1(=O)CCC2(CC[C@@H]([C@H]3c4ccccc4-c4cncn43)[C@H]2O)CC1 (relative stereo) [Example 13a, (1R,2S)-1-hydroxy-2-((S)-5H-imidazo[5,1-a]isoindol-5-yl)-8-thiaspiro[4.5]decane 8,8-dioxide]
410 nM	2100 nM	CC(C)(C)OC(=O)N1CC2CCC(C1)C21C[C@H]([C@@H]2c3ccccc3-c3cncn32)[C@@H]1O (relative stereo) [Example 22a, tert-butyl (2′S,3′R)-2′-hydroxy-3′-((R)-5H-imidazo[5,1-a]isoindol-5-yl)-3-azaspiro[bicyclo[3.2.1]octane-8,1′-cyclobutane]-3-carboxylate]
170 nM	240 nM	CC(=O)N1CCC2(CC[C@H]([C@@H]3c4ccccc4-c4cncn43)[C@@H]2O)CC1 (single isomer, unassigned) [Example 10b]
660 nM	20000 nM	NS(=O)(=O)N1CCC2(CC1)C[C@H]([C@@H]1c3ccccc3-c3cncn31)[C@@H]2O (single isomer, unassigned) [Example 11a]
3000 nM	–	NS(=O)(=O)N1CCC2(CC1)C[C@@H]([C@H]1c3ccccc3-c3cncn31)[C@@H]2O (single isomer, unassigned) [Example 11d]
12000 nM	6800 nM	NS(=O)(=O)N1CCC2(CC1)C[C@@H]([C@@H]1c3ccccc3-c3cncn31)[C@H]2O (single isomer, unassigned) [Example 11e]
182 nM	58.5 nM	NS(=O)(=O)N1CCC2(CC1)C[C@H]([C@H]1c3ccccc3-c3cncn31)[C@@H]2O (single isomer, unassigned) [Example 11f]
930 nM	4700 nM	NS(=O)(=O)N1CCC2(CC1)C[C@H]([C@H]1c3ccccc3-c3cncn31)[C@H]2O (single isomer, unassigned) [Example 11g]
11000 nM	–	NS(=O)(=O)N1CCC2(CC1)C[C@@H]([C@@H]1c3ccccc3-c3cncn31)[C@@H]2O (single isomer, unassigned) [Example 11h]
21000 nM	8100 nM	CC(C)(C)OC(=O)N1[C@@H]2CC[C@H]1C[C@@]1(C[C@@H]([C@H]3c4ccccc4-c4cncn43)[C@H]1O)C2 (single isomer, unassigned) [Example 12b]
520 nM	1900 nM	CC(C)(C)OC(=O)N1[C@@H]2CC[C@H]1C[C@]1(C[C@H]([C@H]3c4ccccc4-c4cncn43)[C@@H]1O)C2 (single isomer, unassigned) [Example 12c]
9800 nM	4300 nM	CC(C)(C)OC(=O)N1[C@@H]2CC[C@H]1C[C@@]1(C[C@@H]([C@@H]3c4ccccc4-c4cncn43)[C@H]1O)C2 (single isomer, unassigned) [Example 12d]
1500 nM	3900 nM	CC(C)(C)OC(=O)N1[C@@H]2CC[C@H]1C[C@]1(C[C@@H]([C@@H]3c4ccccc4-c4cncn43)[C@@H]1O)C2 (single isomer, unassigned) [Example 12e]
20000 nM	–	CC(C)(C)OC(=O)N[C@H]1CC[C@]2(CC1)C[C@@H]([C@H]1c3ccccc3-c3cncn31)[C@@H]2O (single isomer, unassigned) [Example 24o]
–	8800 nM	CC(C)(C)OC(=O)N1CC2CCC(C1)C21C[C@H]([C@H]2c3ccccc3-c3cncn32)[C@@H]1O (stereo partly drawn) [Example 22c, tert-butyl (2′S,3′R)-2′-hydroxy-3′-((S)-5H-imidazo[5,1-a]isoindol-5-yl)-3-azaspiro[bicyclo[3.2.1]octane-8,1′-cyclobutane]-3-carboxylate]
23000 nM	–	O=C(C1CCc2nncn2C1)N1CCC2(CC1)CC(C1c3ccccc3-c3cncn31)C2O (stereo not drawn) [compound 67, [3-hydroxy-2-(5H-imidazo[1,5-b]isoindol-5-yl)-7-azaspiro[3.5]nonan-7-yl]-(5,6,7,8-tetrahydro-[1,2,4]triazolo[4,3-a]pyridin-6-yl)methanone]

The remaining lines, values behind:

SMILES	EC50 [1]	EC50 [2]
CC(C)(C)OC(=O)N1CCC2(CC1)C[C@H](C1c3ccccc3-c3cncn31)[C@@H]2O (single isomer, unassigned) [Example 1a]	6300 nM	4300 nM
CC(C)(C)OC(=O)N1CCC2(CC1)C[C@@H]([C@H]1c3ccccc3-c3cncn31)[C@H]2O (single isomer, unassigned) [Example 1b]	300 nM	27.9 nM
CC(C)(C)OC(=O)N1CCC2(CC[C@@H]([C@@H]3c4ccccc4-c4cncn43)[C@@H]2O)CC1 (single isomer, unassigned) [Example 2a]	15000 nM	6600 nM
CC(C)(C)OC(=O)N1CCC2(CC[C@H]([C@H]3c4ccccc4-c4cncn43)[C@H]2O)CC1 (single isomer, unassigned) [Example 2b]	240 nM	410 nM
CC(C)(C)OC(=O)N1CCC2(CC[C@@H]([C@H]3c4ccccc4-c4cncn43)[C@H]2O)CC1 (single isomer, unassigned) [Example 2c]	107 nM	51.5 nM
CC(C)(C)OC(=O)N1CCC2(CC[C@H]([C@@H]3c4ccccc4-c4cncn43)[C@@H]2O)CC1 (single isomer, unassigned) [Example 2d]	3700 nM	1600 nM
CC(C)(C)OC(=O)N1CC2(CC[C@H]([C@@H]3c4ccccc4-c4cncn43)[C@@H]2O)C1 (single isomer, unassigned) [Example 3b]	72 nM	1100 nM
CC(C)(C)OC(=O)N1CC2(CC[C@@H]([C@@H]3c4ccccc4-c4cncn43)[C@@H]2O)C1 (single isomer, unassigned) [Example 3c]	14000 nM	13000 nM
CC(C)(C)OC(=O)N1CC2(CC[C@H]([C@H]3c4ccccc4-c4cncn43)[C@H]2O)C1 (single isomer, unassigned) [Example 3d]	130 nM	4000 nM
CC(C)(C)OC(=O)N1CC2(CC[C@@H]([C@H]3c4ccccc4-c4cncn43)[C@@H]2O)C1 (single isomer, unassigned) [Example 3e]	14000 nM	7100 nM
CC(C)(C)OC(=O)N1CC2(CC[C@H]([C@@H]3c4ccccc4-c4cncn43)[C@H]2O)C1 (single isomer, unassigned) [Example 3f]	130 nM	170 nM
CC(C)(C)OC(=O)N1CC2(CC[C@@H]([C@@H]3c4ccccc4-c4cncn43)[C@H]2O)C1 (single isomer, unassigned) [Example 3g]	14000 nM	8200 nM
CC(C)(C)OC(=O)N1CC2(CC[C@H]([C@H]3c4ccccc4-c4cncn43)[C@@H]2O)C1 (single isomer, unassigned) [Example 3h]	1200 nM	200 nM
NS(=O)(=O)N1CCC2(CC[C@H]([C@H]3c4ccccc4-c4cncn43)[C@H]2O)CC1 (single isomer, unassigned) [Example 4b]	510 nM	16000 nM
NS(=O)(=O)N1CCC2(CC[C@@H]([C@H]3c4ccccc4-c4cncn43)[C@H]2O)CC1 (single isomer, unassigned) [Example 4c]	4600 nM	6200 nM
NS(=O)(=O)N1CCC2(CC[C@H]([C@@H]3c4ccccc4-c4cncn43)[C@@H]2O)CC1 (single isomer, unassigned) [Example 4d]	73 nM	110 nM
CS(=O)(=O)N1CCC2(CC1)C[C@H]([C@@H]1c3ccccc3-c3cncn31)[C@@H]2O (single isomer, unassigned) [Example 6a]	400 nM	5900 nM
CS(=O)(=O)N1CCC2(CC1)C[C@@H]([C@H]1c3ccccc3-c3cncn31)[C@@H]2O (single isomer, unassigned) [Example 6d]	540 nM	9300 nM
CS(=O)(=O)N1CCC2(CC1)C[C@@H]([C@@H]1c3ccccc3-c3cncn31)[C@H]2O (single isomer, unassigned) [Example 6e]	6800 nM	3200 nM
CS(=O)(=O)N1CCC2(CC1)C[C@H]([C@H]1c3ccccc3-c3cncn31)[C@@H]2O (single isomer, unassigned) [Example 6f]	120 nM	24 nM
CS(=O)(=O)N1CCC2(CC1)C[C@H]([C@H]1c3ccccc3-c3cncn31)[C@H]2O (single isomer, unassigned) [Example 6g]	1230 nM	4680 nM
CS(=O)(=O)N1CCC2(CC1)C[C@@H]([C@@H]1c3ccccc3-c3cncn31)[C@@H]2O (single isomer, unassigned) [Example 6h]	8600 nM	6500 nM
CS(=O)(=O)N1CCC2(CC[C@@H]([C@@H]3c4ccccc4-c4cncn43)[C@@H]2O)CC1 (single isomer, unassigned) [Example 7a]	370 nM	3900 nM
CS(=O)(=O)N1CCC2(CC[C@@H]([C@H]3c4ccccc4-c4cncn43)[C@H]2O)CC1 (single isomer, unassigned) [Example 7c]	133 nM	115 nM
O=S(=O)(CF)N1CCC2(CC1)C[C@H]([C@@H]1c3ccccc3-c3cncn31)[C@@H]2O (single isomer, unassigned) [Example 8a]	15000 nM	17000 nM
O=S(=O)(CF)N1CCC2(CC1)C[C@@H]([C@H]1c3ccccc3-c3cncn31)[C@H]2O (single isomer, unassigned) [Example 8b]	120 nM	48 nM
COC(=O)N1CCC2(CC[C@@H]([C@H]3c4ccccc4-c4cncn43)[C@H]2O)CC1 (single isomer, unassigned) [Example 9a]	21000 nM	18000 nM
COC(=O)N1CCC2(CC[C@H]([C@@H]3c4ccccc4-c4cncn43)[C@@H]2O)CC1 (single isomer, unassigned) [Example 9b]	100 nM	130 nM
CC(=O)N1CCC2(CC[C@@H]([C@H]3c4ccccc4-c4cncn43)[C@H]2O)CC1 (single isomer, unassigned) [Example 10a]	24000 nM	–
